# Measurements published in patent US10730874B2 (Shire Human Genetic Therapies, Inc., priority 2018, dated 2020).
# pEC50: −log10 of the molar value.
# Target: human activated kallikrein enzyme (plasma kallikrein) (Homo sapiens (Human), UniProt P03952)
# Test: Inhibition of human activated plasma kallikrein, fluorogenic peptide substrate assay, 500 pM enzyme format
# Assay type: biochemical
# Conditions: 500 pM activated kallikrein enzyme, 300 uM Pro-Phe-Arg-7-amido-4-methylcoumarin substrate, 30 min preincubation, 10 min at RT; read-out: Primary Dose Response Assay: Average EC50
# Procedure, shortened: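 Buffer 20 mM Tris pH 7.5, EDTA, NaCl, PEG-400, Triton X-100; 300 uM Pro-Phe-Arg-AMC; enzyme–inhibitor preincubation 30 min RT. Format one: 500 pM kallikrein, 10 min RT reaction; format two: 5 pM kallikrein, 18 h RT reaction. Fluorescence read at 460 nm (380 nm excitation).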
# human activated kallikrein enzyme (plasma kallikrein), sequence (P03952 391-638): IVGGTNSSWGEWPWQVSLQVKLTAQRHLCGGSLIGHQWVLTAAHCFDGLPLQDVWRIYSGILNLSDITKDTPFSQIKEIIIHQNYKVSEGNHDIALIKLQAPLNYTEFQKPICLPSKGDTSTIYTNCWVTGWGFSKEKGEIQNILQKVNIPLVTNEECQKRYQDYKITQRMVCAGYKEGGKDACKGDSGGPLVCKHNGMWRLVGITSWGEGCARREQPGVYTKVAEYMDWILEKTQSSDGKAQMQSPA
# human activated kallikrein enzyme (plasma kallikrein), sequence (P03952 20-390 partner): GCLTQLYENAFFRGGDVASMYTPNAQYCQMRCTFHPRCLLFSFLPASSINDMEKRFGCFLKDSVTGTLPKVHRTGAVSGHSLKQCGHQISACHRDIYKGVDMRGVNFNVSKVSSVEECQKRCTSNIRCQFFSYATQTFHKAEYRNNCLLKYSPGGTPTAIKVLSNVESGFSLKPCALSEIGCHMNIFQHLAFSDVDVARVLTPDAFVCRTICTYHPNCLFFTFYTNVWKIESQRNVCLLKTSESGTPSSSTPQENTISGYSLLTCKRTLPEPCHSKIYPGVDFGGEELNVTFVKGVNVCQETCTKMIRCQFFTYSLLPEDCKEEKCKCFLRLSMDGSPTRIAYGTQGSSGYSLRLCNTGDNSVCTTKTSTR
row,SMILES,pEC50
1,"CC(C)(Cc1cc(C2CC2)cn2cc(Cn3cc(C(=O)NCc4ncn5ccc(Cl)c(F)c45)cn3)nc12)c1nn[nH]n1 [Example I-238, N-((7-chloro-8-fluoroimidazo[1,5-a]pyridin-1-yl)methyl)-1-((6-cyclopropyl-8-(2-methyl-2-(2H-tetrazol-5-yl)propyl)imidazo[1,2-a]pyridin-2-yl)methyl)-1H-pyrazole-4-carboxamide]",> 9.00
2,"O=C(NCc1ncn2ccc(Cl)c(F)c12)c1cn(Cc2nc3ccc(C4CC4)cn3c2F)nn1 [Example I-240, N-((7-chloro-8-fluoroimidazo[1,5-a]pyridin-1-yl)methyl)-1-((6-cyclopropyl-3-fluoroimidazo[1,2-a]pyridin-2-yl)methyl)-1H-1,2,3-triazole-4-carboxamide]",> 9.00
3,"O=C(NCc1ncn2ccc(Cl)c(F)c12)c1nnc(C(F)(F)c2cn3cc(C4CC4)ccc3n2)o1 [Example I-243, N-((7-chloro-8-fluoroimidazo[1,5-a]pyridin-1-yl)methyl)-5-((6-cyclopropylimidazo[1,2-a]pyridin-2-yl)difluoromethyl)-1,3,4-oxadiazole-2-carboxamide]",8.00 to 9.00
4,"O=C(O)Cn1c(Cn2cc(C(=O)NCc3ncn4ccc(Cl)c(F)c34)nn2)cc2cc(C3CC3)ccc21 [Example I-244, 2-(2-((4-(((7-chloro-8-fluoroimidazo[1,5-a]pyridin-1-yl)methyl)carbamoyl)-1H-1,2,3-triazol-1-yl)methyl)-5-cyclopropyl-1H-indol-1-yl)acetic acid]",7.00 to 8.00
5,"COC(=O)Cn1c(Cn2cc(C(=O)NCc3ncn4ccc(Cl)c(F)c34)nn2)cc2cc(C3CC3)ccc21 [Example I-246, methyl 2-(2-((4-(((7-chloro-8-fluoroimidazo[1,5-a]pyridin-1-yl)methyl)carbamoyl)-1H-1,2,3-triazol-1-yl)methyl)-5-cyclopropyl-1H-indol-1-yl)acetate]",> 9.00
6,"O=C(O)CCn1c(Cn2cc(C(=O)NCc3ncn4ccc(Cl)c(F)c34)nn2)cc2cc(C3CC3)ccc21 [Example I-251b, 3-(2-((4-(((7-chloro-8-fluoroimidazo[1,5-a]pyridin-1-yl)methyl)carbamoyl)-1H-1,2,3-triazol-1-yl)methyl)-5-cyclopropyl-1H-indol-1-yl)propanoic acid]",> 9.00
7,"O=C(NCc1ncn2ccc(Cl)c(F)c12)c1cn(Cc2nc3ccc(C4CC4)cc3s2)nn1 [Example I-252, N-((7-chloro-8-fluoroimidazo[1,5-a]pyridin-1-yl)methyl)-1-((6-cyclopropylbenzo[d]thiazol-2-yl)methyl)-1H-1,2,3-triazole-4-carboxamide]",7.00 to 8.00
8,"COC(=O)c1ccc(-n2c(Cn3cc(C(=O)NCc4ncn5ccc(Cl)c(F)c45)nn3)cc3cc(C4CC4)ccc32)cc1 [Example I-254, methyl 4-(2-((4-(((7-chloro-8-fluoroimidazo[1,5-a]pyridin-1-yl)methyl)carbamoyl)-1H-1,2,3-triazol-1-yl)methyl)-5-cyclopropyl-1H-indol-1-yl)benzoate]",8.00 to 9.00
9,"O=C(NCc1ncn2ccc(Cl)c(F)c12)c1cn(Cc2nc3cc(C4CC4)cc(Cl)n3n2)nn1 [Example I-255, 1-((5-chloro-7-cyclopropyl-[1,2,4]triazolo[1,5-a]pyridin-2-yl)methyl)-N-((7-chloro-8-fluoroimidazo[1,5-a]pyridin-1-yl)methyl)-1H-1,2,3-triazole-4-carboxamide]",> 9.00
10,"O=C(O)c1ccc(-n2c(Cn3cc(C(=O)NCc4ncn5ccc(Cl)c(F)c45)nn3)cc3cc(C4CC4)ccc32)cc1 [Example I-259, 4-(2-((4-(((7-chloro-8-fluoroimidazo[1,5-a]pyridin-1-yl)methyl)carbamoyl)-1H-1,2,3-triazol-1-yl)methyl)-5-cyclopropyl-1H-indol-1-yl)benzoic acid]",8.00 to 9.00
11,CCOC(=O)c1nc(C(=O)NCc2ncn3ccc(Cl)c(F)c23)cn1Cc1cn2cc(C3CC3)ccc2n1 [Example I-260],> 9.00
12,"O=C(NCc1ncn2ccc(Cl)c(F)c12)c1cn(Cc2cn3cc(C4CC4)ccc3n2)c(C(=O)O)n1 [Example I-261, 4-(((7-chloro-8-fluoroimidazo[1,5-a]pyridin-1-yl)methyl)carbamoyl)-1-((6-cyclopropylimidazo[1,2-a]pyridin-2-yl)methyl)-1H-imidazole-2-carboxylic acid]",> 9.00

# Second part, the compound after the results:
row,pEC50,SMILES
1,8.00 to 9.00,"O=C(NCc1ncn2ccc(Cl)c(F)c12)c1cn(Cc2cn3cc(C4CC4)c(F)cc3n2)nn1 [Example I-239, N-((7-chloro-8-fluoroimidazo[1,5-a]pyridin-1-yl)methyl)-1-((6-cyclopropyl-7-fluoroimidazo[1,2-a]pyridin-2-yl)methyl)-1H-1,2,3-triazole-4-carboxamide]"
2,> 9.00,"CCOC(=O)C(C)(C)C(O)c1cc(C2CC2)cn2cc(Cn3cc(C(=O)NCc4ncn5ccc(Cl)c(F)c45)nn3)nc12 (stereo not shown) [Example I-241a, ethyl 3-(2-((4-(((7-chloro-8-fluoroimidazo[1,5-a]pyridin-1-yl)methyl)carbamoyl)-1H-1,2,3-triazol-1-yl)methyl)-6-cyclopropylimidazo[1,2-a]pyridin-8-yl)-3-hydroxy-2,2-dimethylpropanoate]"
3,> 9.00,"CCn1ncn(-c2cc(C3CC3)cn3cc(Cn4cc(C(=O)NCc5ncn6ccc(Cl)c(F)c56)nn4)nc23)c(=O)c1=O [Example I-242, N-((7-chloro-8-fluoroimidazo[1,5-a]pyridin-1-yl)methyl)-1-((6-cyclopropyl-8-(1-ethyl-5,6-dioxo-5,6-dihydro-1,2,4-triazin-4(1H)-yl)imidazo[1,2-a]pyridin-2-yl)methyl)-1H-1,2,3-triazole-4-carboxamide]"
4,> 9.00,"CCOC(=O)C(C)Cc1cc(C2CC2)cn2cc(Cn3cc(C(=O)NCc4ncn5ccc(Cl)c(F)c45)nn3)nc12 (stereo not shown) [Example I-245a, ethyl 3-(2-((4-(((7-chloro-8-fluoroimidazo[1,5-a]pyridin-1-yl)methyl)carbamoyl)-1H-1,2,3-triazol-1-yl)methyl)-6-cyclopropylimidazo[1,2-a]pyridin-8-yl)-2-methylpropanoate]"
5,> 9.00,"CC(Cc1cc(C2CC2)cn2cc(Cn3cc(C(=O)NCc4ncn5ccc(Cl)c(F)c45)nn3)nc12)C(=O)O (stereo not shown) [Example I-245b, 3-(2-((4-(((7-chloro-8-fluoroimidazo[1,5-a]pyridin-1-yl)methyl)carbamoyl)-1H-1,2,3-triazol-1-yl)methyl)-6-cyclopropylimidazo[1,2-a]pyridin-8-yl)-2-methylpropanoic acid]"
6,> 9.00,"O=C(NCc1ncn2ccc(Cl)c(F)c12)c1cn(Cc2cn3cc(C4CC4)cc(-n4cn[nH]c(=O)c4=O)c3n2)nn1 [Example I-247, N-((7-chloro-8-fluoroimidazo[1,5-a]pyridin-1-yl)methyl)-1-((6-cyclopropyl-8-(5,6-dioxo-5,6-dihydro-1,2,4-triazin-4(1H)-yl)imidazo[1,2-a]pyridin-2-yl)methyl)-1H-1,2,3-triazole-4-carboxamide]"
7,> 9.00,"CCOC(=O)c1nncn1-c1cc(C2CC2)cn2cc(Cn3cc(C(=O)NCc4ncn5ccc(Cl)c(F)c45)nn3)nc12 [Example I-248, ethyl 4-(2-((4-(((7-chloro-8-fluoroimidazo[1,5-a]pyridin-1-yl)methyl)carbamoyl)-1H-1,2,3-triazol-1-yl)methyl)-6-cyclopropylimidazo[1,2-a]pyridin-8-yl)-4H-1,2,4-triazole-3-carboxylate]"
8,> 9.00,"Cc1nncn1-c1cc(C2CC2)cn2cc(Cn3cc(C(=O)NCc4ncn5ccc(Cl)c(F)c45)nn3)nc12 [Example I-249, N-((7-chloro-8-fluoroimidazo[1,5-a]pyridin-1-yl)methyl)-1-((6-cyclopropyl-8-(3-methyl-4H-1,2,4-triazol-4-yl)imidazo[1,2-a]pyridin-2-yl)methyl)-1H-1,2,3-triazole-4-carboxamide]"
9,> 9.00,"O=C(NCc1ncn2ccc(Cl)c(F)c12)c1cn(Cc2cn3cc(C4CC4)cc(N4CC5(COC5)C4)c3n2)nn1 [Example I-250, N-((7-chloro-8-fluoroimidazo[1,5-a]pyridin-1-yl)methyl)-1-((6-cyclopropyl-8-(2-oxa-6-azaspiro[3.3]heptan-6-yl)imidazo[1,2-a]pyridin-2-yl)methyl)-1H-1,2,3-triazole-4-carboxamide]"
10,> 9.00,"Cc1nnc(C)n1-c1cc(C2CC2)cn2cc(Cn3cc(C(=O)NCc4ncn5ccc(Cl)c(F)c45)nn3)nc12 [Example I-253, N-((7-chloro-8-fluoroimidazo[1,5-a]pyridin-1-yl)methyl)-1-((6-cyclopropyl-8-(3,5-dimethyl-4H-1,2,4-triazol-4-yl)imidazo[1,2-a]pyridin-2-yl)methyl)-1H-1,2,3-triazole-4-carboxamide]"
11,8.00 to 9.00,"O=C(NCc1ncn2ccc(Cl)c(F)c12)c1cn(Cc2cc3ccc(C4CC4)cn3c2)nn1 [Example I-256, N-((7-chloro-8-fluoroimidazo[1,5-a]pyridin-1-yl)methyl)-1-((6-cyclopropylindolizin-2-yl)methyl)-1H-1,2,3-triazole-4-carboxamide]"
12,> 9.00,"Cc1ncc(-c2cc(C3CC3)cn3cc(Cn4cc(C(=O)NCc5ncn6ccc(Cl)c(F)c56)nn4)nc23)s1 [Example I-257, N-((7-chloro-8-fluoroimidazo[1,5-a]pyridin-1-yl)methyl)-1-((6-cyclopropyl-8-(2-methylthiazol-5-yl)imidazo[1,2-a]pyridin-2-yl)methyl)-1H-1,2,3-triazole-4-carboxamide]"
13,> 9.00,"Cc1ncn(-c2cc(C3CC3)cn3cc(Cn4cc(C(=O)NCc5ncn6ccc(Cl)c(F)c56)nn4)nc23)n1 [Example I-258, N-((7-chloro-8-fluoroimidazo[1,5-a]pyridin-1-yl)methyl)-1-((6-cyclopropyl-8-(3-methyl-1H-1,2,4-triazol-1-yl)imidazo[1,2-a]pyridin-2-yl)methyl)-1H-1,2,3-triazole-4-carboxamide]"
